One molecule from patent US7915264B2, “Fused pyridine derivatives for use as vanilloid receptor antagonists for treating pain” (Novartis AG, priority 2001, dated 2011) can be followed below.

Assay [1] addresses T1, human vanilloid receptor 1 (hVR1) ion channels (Homo sapiens, UniProt Q8NER1).
T1 construct: expressed in transfected cells; host or cells: CHO cells
In words: Fluorescence assay (calcium-sensitive dye) in CHO cells expressing human vanilloid receptor 1 ion channels, stimulated by capsaicin or low pH. Format: cell-based. The conditions noted are these: in vitro, VR1 ion channel block. On the procedure:
Fluorescence assay: Cultures of Chinese Hamster Ovary (CHO) cells expressing human vanilloid receptor 1 ion channels are prepared according to standard protocols [McIntyre et al., British Journal of Pharmacology 132: 1084-1094 (2001)]. The activity of test compounds are investigated using a fluorescence assay utilising calcium sensitive dyes to measure changes in [Ca^2+]i. The cells are plated at a density of 25,000 per well on 96 well Costar black, clear bottomed plates cultured at 37° C. in 5% CO2 in MEM medium overnight. On the day of the assay, cells are incubated in either 2 μM fura-2/AM or 2 μM fura-6F (Molecular Probes) made up in assay buffer [Hank's Balanced Salt Solution (HBSS, Invitrogen) containing 10 mM N-2-(hydroxyethylpiperazine-N′-[2-ethanesulfonic acid) (HEPES), pH 7.4] containing 0.01% pluronic F-127 for 30 min at room temperature. […] The fluorescence is measured over 1 min at 4 s intervals using excitation wavelengths of 340 and 380 nm and emission of 520 nm. […] The ratio of fluorescence intensities following excitation at 340 and 380 nm is calculated for each time point. The agonist-evoked response is calculated as the mean of the ratios in the four time-points following stimulation minus the basal ratio.

The target of a further assay is rat VR1 (Rattus norvegicus, UniProt O35433). Briefly: Fluorescence assay, rat VR1. Format: cell-based. The following applies: in vitro, VR1 ion channel block.
For assay [2], the system named is rat model of neuropathic pain. Briefly: Anti-hyperalgesic effects in a model of neuropathic pain in the rat (partial sciatic nerve ligation, paw pressure). Format: in vivo. The following applies: single dose 0.3-30 mg/kg p.o. after establishment of hyperalgesia. The method, then:
Test: Anti-Hyperalgesic Effects in a Model of Neuropathic Pain in the Rat
The agents of invention are potent and efficacious anti-hyperalgesic agents following oral administration in the following rat model of neuropathic pain. Peripheral neuropathy is induced by partial ligation of the left sciatic nerve. Mechanical hyperalgesia is assessed from paw withdrawal thresholds measured on the ipsilateral (ligated) and contralateral (non-ligated) hindpaws using standard paw pressure methods. Drug effects are studied 11-15 days post ligation. The mean paw withdrawal threshold±s.e.m. for the left (ligated) paw is compared to that of the right (non-ligated) paw.
The agents of invention are administered, e.g. orally in 20% cremophor/water in a volume of 1 ml. The post-drug percentage hyperalgesia values are obtained by comparison to the pre-drug value for the right (non-ligated) paw; this enables a true measure of the reduction in hyperalgesia to be obtained without the added complication of any drug effects on the right paw. […] The agents of invention produce a reversal of mechanical hyperalgesia at 0.1-100 mg/kg and show a rapid onset of activity with a long duration of action.

rat VR1, sequence (O35433 whole entry): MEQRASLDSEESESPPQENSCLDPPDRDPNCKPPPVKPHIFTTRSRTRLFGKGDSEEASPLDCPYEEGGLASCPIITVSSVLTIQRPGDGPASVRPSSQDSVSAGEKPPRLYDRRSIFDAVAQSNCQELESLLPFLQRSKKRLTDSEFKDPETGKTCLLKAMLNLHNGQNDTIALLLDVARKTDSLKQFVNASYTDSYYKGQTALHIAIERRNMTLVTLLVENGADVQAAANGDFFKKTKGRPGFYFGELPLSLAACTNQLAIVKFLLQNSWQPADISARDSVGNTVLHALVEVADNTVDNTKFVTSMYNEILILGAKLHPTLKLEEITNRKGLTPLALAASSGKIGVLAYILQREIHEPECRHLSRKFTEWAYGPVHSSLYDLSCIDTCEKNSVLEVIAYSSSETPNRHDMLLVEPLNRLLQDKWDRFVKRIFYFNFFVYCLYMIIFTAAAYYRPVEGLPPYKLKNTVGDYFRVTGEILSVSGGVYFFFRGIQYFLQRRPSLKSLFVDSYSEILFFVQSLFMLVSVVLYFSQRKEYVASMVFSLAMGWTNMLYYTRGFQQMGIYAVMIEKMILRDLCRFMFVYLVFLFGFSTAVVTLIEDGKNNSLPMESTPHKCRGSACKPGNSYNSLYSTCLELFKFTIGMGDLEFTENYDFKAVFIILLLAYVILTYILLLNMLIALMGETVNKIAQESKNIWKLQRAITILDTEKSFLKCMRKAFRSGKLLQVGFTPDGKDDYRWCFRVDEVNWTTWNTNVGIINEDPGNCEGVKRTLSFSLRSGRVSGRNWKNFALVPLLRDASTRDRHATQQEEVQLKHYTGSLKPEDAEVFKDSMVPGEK
T1 sequence (Q8NER1 whole entry): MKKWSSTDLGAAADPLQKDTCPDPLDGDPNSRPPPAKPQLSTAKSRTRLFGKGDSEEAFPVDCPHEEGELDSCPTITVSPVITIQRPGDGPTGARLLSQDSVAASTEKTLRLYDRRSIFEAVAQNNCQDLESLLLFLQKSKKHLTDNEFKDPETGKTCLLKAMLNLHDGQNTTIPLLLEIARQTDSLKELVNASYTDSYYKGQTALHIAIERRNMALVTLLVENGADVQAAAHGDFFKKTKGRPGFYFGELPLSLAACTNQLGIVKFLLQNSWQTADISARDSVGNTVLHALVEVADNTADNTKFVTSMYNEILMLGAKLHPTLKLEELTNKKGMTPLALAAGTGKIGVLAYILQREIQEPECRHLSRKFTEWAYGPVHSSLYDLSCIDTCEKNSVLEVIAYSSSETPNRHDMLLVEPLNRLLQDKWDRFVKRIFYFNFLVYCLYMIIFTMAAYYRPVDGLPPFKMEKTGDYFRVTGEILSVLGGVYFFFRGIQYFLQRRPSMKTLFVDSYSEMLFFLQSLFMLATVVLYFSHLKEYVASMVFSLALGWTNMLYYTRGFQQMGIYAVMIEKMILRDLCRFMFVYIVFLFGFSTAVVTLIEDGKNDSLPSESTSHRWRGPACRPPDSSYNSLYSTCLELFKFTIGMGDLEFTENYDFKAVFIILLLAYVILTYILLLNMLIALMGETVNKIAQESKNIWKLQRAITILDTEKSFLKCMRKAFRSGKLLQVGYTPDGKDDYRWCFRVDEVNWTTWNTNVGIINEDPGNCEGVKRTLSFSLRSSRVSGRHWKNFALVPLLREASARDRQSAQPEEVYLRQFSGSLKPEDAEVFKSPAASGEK

As a reminder, the IC50 is the concentration that inhibits the measured activity by half. With `CC(C)(C)c1nc2[nH]c(=S)[nH]c(=O)c2cc1-c1ccc(Cl)cc1` [Example 2, 7-.tert.-butyl-6-(4-chlorophenyl)-2-thioxo-2,3-dihydro-1.H.-pyrido[2,3-.d.]pyrimidin-4-one], the concentration for half-maximal inhibition (IC50) was determined as 0.0651 µM in assay [1] and 0.0192 µM against rat VR1. Further, the “duration of effect on paw withdrawal thresholds” value in assay [2] is given as “at least 6 h”. In assay [2], the “effect on paw withdrawal thresholds” value is “dose-dependently reduces paw withdrawal thresholds”.
